Where no end group is shown, it is not given here.
Assays:
Assay type in all cases: cell-based
[1] = test system: NIH-3T3 cells; experiment: Cell permeability after PR-39 treatment (propium iodide); settings: for fluorescent cells per 20× field: confluent NIH-3T3, 60 minutes at 37° C., 50 μg/ml propium iodide
Experimental: Cell permeability after PR-39 treatment was then measured. NIH-3T3 cells were cultured to confluence on chamber slides. 0, 0.1, 0.5, 1, and 10 μM PR-39 was added to the culture medium and incubated 60 minutes at 37° C.; then 50 μg/ml propium iodide (FW 688) was added.

[2] = test system: cell surface syndecan-1; experiment: ELISA for cell surface syndecan-1 on NIH 3T3 cells; settings: for increase of cell surface syndecan-1: confluent NIH 3T3 cells, after 48 hr culture
Experimental: An in vitro cell culture system was used to explore the mechanism by which cell surface syndecans is induced. NIH 3T3 cells grown to confluence in serum-containing medium were exposed to potential inducers and then evaluated by ELISA for the amount of cell surface syndecan-1.
Syndecan-1 at the cell surface was determined on cells cultured in 96 well tissue culture plates by washing the cells once in Tris buffered saline (TBS) (10 mM Tris, 150 mM NaCl, pH 7.4), fixing 30 min in 2% HEPES-buffered paraformaldehyde, pH 7.4, rinsing three times in TBS and incubating the cells for 30 min in TBS, 0.1% BSA, 5% goat serum. Cells were incubated for 1 hr at room temperature with 5 μg/ml mAb 281-2 (specific for extracellular domain of syndecan-1 core protein) (M. Jalkanen, H. Nguyen, A. C. Rapraeger, N. Kurn, M. Bernfield, J. Cell Biol., 101:976 (1985)) or non-specific rat IgG2A (Zymed, San Francisco, Calif.). Cells were then rinsed 3×5 min with TBS, incubated with alkaline phosphatase conjugated goat anti-rat antibody (Caltag, San Francisco, Calif.) for 30 min, rinsed 3×5 min with TBS, and alkaline phosphatase activity determined by measuring the absorbance at 405 nm of a 1 mg/ml solution of p-nitrophenolphosphate (Sigma, St. Louis, Mo.) in 10 mM Tris, 100 mM NaCl, 5 mM MgCl pH 9.5. Linear rates of absorbance change over time were determined by an automated microplate reader (Molecular Devices, Menlo Park, Calif.). Cells were then rinsed 3× with TBS and cellular protein determined by solubilizing cells in individual wells with 20 μl of 0.1N NaOH followed by protein determination (BCA protein assay, Pierce, Rockford, Ill.).
These measurements correlated strongly over the range of syndecan-1 detected in this study (r=0.96), confirming that the ELISA assay provides a quantitative assessment of cell surface syndecan-1. […]

[3] = test system: NIH 3T3 cells; experiment: Cell number, cell protein and morphology of treated NIH 3T3 cells
[4] = test system: NIH-3T3 cells; experiment: Effect on cell morphology (f-actin, rhodamine phalloidin); settings: 2 μM, 72 hr, confluent NIH-3T3
Experimental: To determine the effect on cell morphology, NIH-3T3 cells were cultured to confluence on coverslips in 24 well plates. 2 μM PR-39 was added the medium and cultured for 72 hr. 2% PFA and acetone were used to fix cells and cells were stained with f-actin with rhodamine phalloidin.

[5] = test system: NIH-3T3 cells; experiment: Uptake and binding of iodinated PR-39
Experimental: FIG. 4 is a graph showing uptake of PR-39 by NIH-3T3 cells.
PR-39 was iodinated using the Iodogen procedure (Pierce T). The influx and efflux kinetics were calculated, accessable compartments were evaluated, and total uptake measured in NIH-3T3 cells.

Triton™ was tested, and the “fluorescent cells, percent” value ([1]; confluent NIH-3T3, 50 μg/ml propium iodide) was 100% and the “fluorescent cells per 20× field” value [1] was “approximately 50 /20× field”.

FGF-2 was tested, and the “increase of cell surface syndecan-1” value [2] was “approximately three to four-fold” and the “increase of cell number” value [3] was “about two-fold”.

In the case of “RRRPRPPYLPRPRPPPFFPPRLPPRIPPGFPPRFPPRFP [PR-39]”, the “change in cell morphology” value [4] is reported as “No change in cell morphology”, the “induction of cell surface syndecan-1 by PR-39” value ([2]; NIH-3T3 cells, 43 hours) is reported as “concentration dependent manner” and the uptake into cells ([5]; iodinated PR-39, NIH-3T3 cells) is reported as “rapidly associates with and enters NIH-3T3 cells”. For the same substance, the saturation of uptake ([5]; radioactive PR-39, NIH-3T3 cells) was “reaches a saturation point”, the membrane permeability change ([1]; 0.1, 0.5, 1 and 10 μM, 60 minutes at 37° C.) was “no large perability changes” and the “fluorescent cells per 20× field” value [1] was 2 /20× field.

For PDGF-AB, the “increase of cell surface syndecan-1” value [2] was “approximately three to four-fold” and the “increase of cell number” value [3] was “about two-fold”.

Reference: patent US5654273A, “Synducin mediated modulation of tissue repair” (Children's Medical Center Corporation, priority 1994, dated 1997)
